The record followed here is PubChem BioAssay (NCI).

Molecules are shown by their SMILES.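 1) Cells in 96-well plates. 2) Compound, 48 h, 5 concentrations. 3) Linear interpolation between surrounding doses. 4) Unreached endpoint = highest concentration. GI50: concentration for 50% inhibition of growth. At the TGI there is no net growth.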

Among the test systems are SW-620 colon; OVCAR-8 ovarian; HCC-2998 colon; HL-60(TB) leukemia; NCI-H460 lung; SF-268 CNS; NCI-H522 lung; U251 CNS.
What all share (assay): DTP human tumour cell line panel, 48 h

By TGI is commonly meant the concentration at which net growth stops. `CC(=O)CCn1ncc(Cl)c(Cl)c1=O`: the total growth inhibition concentration (TGI) in the assay with SW-620 colon was found to be 39 µM; with OVCAR-8 ovarian, 54.9 µM; in the assay with HCC-2998 colon, 21.9 µM; in the assay with HL-60(TB) leukemia it was 63.2 µM; in the assay on NCI-H460 lung, 42.2 µM; in the assay with SF-268 CNS, 28 µM.
In the case of `Nc1nc(Cl)cc(NCCCCCCCCNc2cc(Cl)nc(N)n2)n1`, the TGI in the assay with SW-620 colon is > 100 µM; in the assay on OVCAR-8 ovarian, 58.6 µM; with NCI-H522 lung, 37.2 µM; in the assay on HCC-2998 colon, > 100 µM; in the assay on HL-60(TB) leukemia it was 48.5 µM; with NCI-H460 lung, > 100 µM. Moreover, the TGI with SF-268 CNS and with U251 CNS was > 100 µM throughout.
As to `CCC12CCCN(Cc3ccccc3)C1c1c(n(C)c3ccccc13)CC2` (stereo not drawn), the total growth inhibition concentration (TGI) with SW-620 colon was > 253 µM; in the assay on OVCAR-8 ovarian it was > 253 µM; in the assay with NCI-H522 lung, 220 µM; with HCC-2998 colon, > 253 µM; in the assay on HL-60(TB) leukemia, > 253 µM; in the assay on NCI-H460 lung, > 253 µM. Besides, the TGI in the assay on SF-268 CNS and in the assay on U251 CNS was > 253 µM each time.
As for `COC(=O)C(C(=O)c1ccccc1)C(C(=O)C(=O)Nc1ccc(OC)cc1OC)C(=O)C(=O)c1ccc(C)cc1` (stereo not drawn), the TGI in the assay on SW-620 colon, in the assay on OVCAR-8 ovarian, in the assay with NCI-H522 lung, with HCC-2998 colon, in the assay with HL-60(TB) leukemia and in the assay with NCI-H460 lung was > 100 µM throughout. Besides, the TGI in the assay on SF-268 CNS and with U251 CNS was > 100 µM in each case.
For `CN1CC(=O)N2Cc3ccccc3-n3cccc3C2C1` (stereo not drawn), the TGI in the assay on SW-620 colon, in the assay on OVCAR-8 ovarian, in the assay on HCC-2998 colon, in the assay on NCI-H460 lung, in the assay with SF-268 CNS and with U251 CNS was > 100 µM throughout.
On to `Cc1cn2c(=O)c3ncn(C4OC(CO)C(O)C4O)c3n(C)c2n1` (stereo not drawn), for which the TGI in the assay with SW-620 colon, in the assay with OVCAR-8 ovarian, in the assay with NCI-H522 lung, in the assay with HCC-2998 colon, with HL-60(TB) leukemia and in the assay on NCI-H460 lung was > 100 µM in each case. Further, the concentration for total growth inhibition (TGI) with SF-268 CNS and in the assay with U251 CNS was > 100 µM in each case.
As for `CC12C/C(=C\c3ccccc3)C(=O)C3C1CCCC32`, the TGI is > 100 µM in the assay on SW-620 colon; > 100 µM in the assay on OVCAR-8 ovarian; > 100 µM in the assay on NCI-H522 lung; > 100 µM in the assay with HCC-2998 colon; 55.6 µM in the assay with HL-60(TB) leukemia; > 100 µM in the assay on NCI-H460 lung. The concentration for total growth inhibition (TGI) in the assay with SF-268 CNS and with U251 CNS was > 100 µM in each case.
Usually GI50 stands for the concentration that inhibits growth by half. Regarding `Cc1cc(Nc2ccc(NC(=O)c3ccc(Nc4ccnc5ccccc45)cc3)cc2)nc(N)n1`, in the assay with SW-620 colon, the GI50 is 1.37 µM and the concentration for total growth inhibition (TGI) is > 100 µM. For the same compound, in the assay on HL-60(TB) leukemia, the GI50 is 7.31 µM and the TGI was > 100 µM.
For the compound `OC(CC1SCCCS1)c1ccccc1` (stereo not drawn), the total growth inhibition concentration (TGI) in the assay with SW-620 colon, with OVCAR-8 ovarian, in the assay on NCI-H522 lung, in the assay with HCC-2998 colon, in the assay with HL-60(TB) leukemia and with NCI-H460 lung was > 100 µM throughout. For the same compound, the TGI with SF-268 CNS and in the assay with U251 CNS was > 100 µM in each case.
In the case of `O=C(CCN(C(=O)O)S(=O)(=O)c1ccc(NC(=O)c2ccccc2)cc1)Nc1ccccc1`, the TGI with SW-620 colon is > 68 µM; with OVCAR-8 ovarian, > 100 µM; in the assay with NCI-H522 lung, > 100 µM; in the assay with HCC-2998 colon, > 100 µM; in the assay with HL-60(TB) leukemia, > 75.2 µM; in the assay with NCI-H460 lung, > 83.6 µM. Also, the TGI in the assay with SF-268 CNS and with U251 CNS was > 100 µM each time.
`CC(C)C(CCl)NC(=O)c1cccc(C(=O)N[C@H](CCl)C(C)C)n1` (stereo in doubt): the TGI in the assay with SW-620 colon, in the assay with NCI-H522 lung, with HCC-2998 colon, in the assay with HL-60(TB) leukemia, in the assay on NCI-H460 lung and in the assay with SF-268 CNS was > 100 µM throughout. Further, in the assay with U251 CNS, the TGI is > 100 µM.
As to `C#CCOc1cccc(-c2ncc3cc(NC(=O)CCl)ccc3n2)c1`, the GI50 in the assay with SW-620 colon is 1.56 µM; in the assay with NCI-H522 lung, 1.16 µM; in the assay with HCC-2998 colon, 1.91 µM; in the assay with HL-60(TB) leukemia, 2.28 µM; in the assay on NCI-H460 lung it was 2.16 µM; in the assay with SF-268 CNS it was 2.03 µM. In addition, in the assay on U251 CNS, the GI50 is 1.78 µM. Moreover, the TGI worked out at 3.25 µM with SW-620 colon; 2.51 µM with NCI-H522 lung; 3.4 µM in the assay with HCC-2998 colon; 8.02 µM in the assay on HL-60(TB) leukemia; 4.83 µM with NCI-H460 lung; 5.25 µM in the assay with SF-268 CNS. This compound yielded a TGI in the assay on U251 CNS of 3.23 µM.
With `CCN(CC)CCCN1CCc2c([nH]c3ccccc23)C1c1cccnc1` (stereo not drawn), the TGI in the assay with SW-620 colon, in the assay on OVCAR-8 ovarian, in the assay with NCI-H522 lung, in the assay on HCC-2998 colon, in the assay on HL-60(TB) leukemia and with NCI-H460 lung was > 100 µM each time. Besides, the concentration for total growth inhibition (TGI) with U251 CNS was > 100 µM.
Consider `CC(C)N(C(=O)C12C3C4C1C1C4(C#N)C3C12C#N)C(C)C` (stereo not drawn), for which the total growth inhibition concentration (TGI) with SW-620 colon, with OVCAR-8 ovarian, with HCC-2998 colon, with NCI-H460 lung, with SF-268 CNS and in the assay with U251 CNS was > 100 µM in each case.
On to `CC1(C)COC(C2(C)C(=O)C=C(c3ccccc3)c3ccccc32)=N1` (stereo not drawn), for which the total growth inhibition concentration (TGI) was > 100 µM in the assay on SW-620 colon; > 100 µM with OVCAR-8 ovarian; > 100 µM in the assay on NCI-H522 lung; 67.7 µM in the assay with HL-60(TB) leukemia; > 100 µM with NCI-H460 lung; > 100 µM with SF-268 CNS. Further, the TGI in the assay on U251 CNS was > 100 µM.
As for `O=C1c2ccccc2C(=O)N1CCn1ccc(NC(c2ccccc2)(c2ccccc2)c2ccccc2)nc1=O`, the TGI in the assay on SW-620 colon is > 100 µM; in the assay on OVCAR-8 ovarian, > 100 µM; with NCI-H522 lung, 45.9 µM; with HCC-2998 colon it was 37.7 µM; in the assay on HL-60(TB) leukemia, 44.2 µM; in the assay on NCI-H460 lung, 65.5 µM. The TGI worked out at 45.3 µM in the assay with SF-268 CNS and 32.3 µM with U251 CNS.
In the case of `[N-]=[N+]=NC1(Cc2ccccc2)C(=O)c2cccc3c2N(CCC3)C1=O` (stereo not drawn), the TGI in the assay on SW-620 colon, in the assay on OVCAR-8 ovarian, in the assay on NCI-H522 lung, in the assay with HL-60(TB) leukemia, with NCI-H460 lung and in the assay on SF-268 CNS was > 100 µM in each case. The TGI in the assay on U251 CNS is > 100 µM.
